Laboratory results as given in the supplement of paper PMC13380429.

Key:
Conditions in all cases: 72 h
Caco-2 [1] = assay: cell viability relative to DMSO; higher = less toxic
Calu-3 [2] = assay: as above
HepG2 [3] = assay: as above
U2OS [4] = assay: as above
Vero E6 [5] = assay: as above
Caco-2 [6] = assay: relative viability EC50 (midpoint between 100% and the lowest measured viability); higher = less toxic
Calu-3 [7] = assay: as above
HepG2 [8] = assay: as above
U2OS [9] = assay: as above
Vero E6 [10] = assay: as above
Caco-2 [11] = assay: drug sensitivity score (DSS) for viability; higher = more toxic; extreme values may be limits of the assay
Calu-3 [12] = assay: as above
HepG2 [13] = assay: as above
U2OS [14] = assay: as above
Vero E6 [15] = assay: as above

Compound | cell viability (Caco-2 [1]; 1 nM) [%] | cell viability (Caco-2 [1]; 10 nM) [%] | cell viability (Caco-2 [1]; 100 nM) [%] | cell viability (Caco-2 [1]; 1000 nM) [%] | cell viability (Caco-2 [1]; 10000 nM) [%] | cell viability (Calu-3 [2]; 1 nM) [%] | cell viability (Calu-3 [2]; 10 nM) [%] | cell viability (Calu-3 [2]; 100 nM) [%] | cell viability (Calu-3 [2]; 1000 nM) [%] | cell viability (Calu-3 [2]; 10000 nM) [%] | cell viability (HepG2 [3]; 1 nM) [%] | cell viability (HepG2 [3]; 10 nM) [%] | cell viability (HepG2 [3]; 100 nM) [%] | cell viability (HepG2 [3]; 1000 nM) [%] | cell viability (HepG2 [3]; 10000 nM) [%] | cell viability (U2OS [4]; 1 nM) [%] | cell viability (U2OS [4]; 10 nM) [%] | cell viability (U2OS [4]; 100 nM) [%] | cell viability (U2OS [4]; 1000 nM) [%] | cell viability (U2OS [4]; 10000 nM) [%] | cell viability (Vero E6 [5]; 1 nM) [%] | cell viability (Vero E6 [5]; 10 nM) [%] | cell viability (Vero E6 [5]; 100 nM) [%] | cell viability (Vero E6 [5]; 1000 nM) [%] | cell viability (Vero E6 [5]; 10000 nM) [%] | relative viability EC50 (Caco-2 [6]) [µM] | relative viability EC50 (Calu-3 [7]) [µM] | relative viability EC50 (HepG2 [8]) [µM] | relative viability EC50 (U2OS [9]) [µM] | relative viability EC50 (Vero E6 [10]) [µM] | drug sensitivity score (Caco-2 [11]) | drug sensitivity score (Calu-3 [12]) | drug sensitivity score (HepG2 [13]) | drug sensitivity score (U2OS [14]) | drug sensitivity score (Vero E6 [15])
CCCN(CCC)S(=O)(=O)c1ccc(C(=O)O)cc1 [probenecid] | 95.8 | 97.6 | 88.8 | 104 | 93.3 | 88.3 | 106 | 102 | 118 | 91.3 | 105 | 91.6 | 97 | 95.4 | 109 | 97.5 | 97.5 | 95.2 | 99.1 | 95.9 | 102 | 104 | 103 | 99.3 | 99.6 | > 10 | > 10 | > 10 | > 10 | > 10 | 0 | 0 | 0 | 0 | 0
O=c1c(O)c(-c2ccc(O)c(O)c2)oc2cc(O)cc(O)c12 [quercetin] | 104 | 93.6 | 100 | 87.6 | 79.5 | 98.8 | 100 | 92.4 | 92.8 | 80.5 | 94.1 | 95.8 | 99.2 | 99.1 | 84 | 99.1 | 97 | 98 | 97 | 96.1 | 99.3 | 99 | 95.9 | 101 | 99.3 | > 10 | > 10 | > 10 | > 10 | > 10 | 1.9 | 0.8 | 0.4 | 0 | 0
Cc1nnc(C(=O)NC(C)(C)c2nc(C(=O)NCc3ccc(F)cc3)c(O)c(=O)n2C)o1 [raltegravir] | 102 | 104 | 94.4 | 94.7 | 99.7 | 104 | 99.3 | 99 | 107 | 104 | 100 | 102 | 97.6 | 118 | 90.3 | 104 | 95.9 | 100 | 97.5 | 100 | 101 | 99.3 | 95.7 | 97.5 | 94.4 | > 10 | > 10 | > 10 | > 10 | > 10 | 0 | 0 | 0 | 0 | 0
CN(C)Cc1ccc(S(=O)(=O)n2ccc(/C=C/C(=O)NO)c2)cc1 [resminostat] | 99.6 | 101 | 103 | 98.4 | 12.4 | 102 | 96.3 | 92.9 | 86.2 | 27.9 | 110 | 110 | 94 | 69.2 | 7.9 | 95.2 | 105 | 97.9 | 88.1 | 5.5 | 106 | 103 | 101 | 82.1 | 2 | 3.03 | 1.77 | 1.38 | 2.14 | 1.81 | 5.1 | 6.2 | 9.1 | 7.2 | 8.4
Cc1cc(OCC(=O)O)cc(C)c1Cc1ccc(O)c(C(C)C)c1 [sobetirome] | 102 | 95.7 | 92.1 | 94.7 | 90.5 | 102 | 96.6 | 105 | 98.7 | 101 | 100 | 103 | 96 | 96.2 | 85 | 97.5 | 99.9 | 99.5 | 99.5 | 100 | 102 | 99.3 | 87.9 | 96.4 | 85.3 | > 10 | > 10 | > 10 | > 10 | > 10 | 0 | 0 | 0.4 | 0 | 0.3
Nc1ccc(S(=O)(=O)Nc2nccs2)cc1 [sulfathiazole] | 95.8 | 96.1 | 95.1 | 93.6 | 99 | 86.1 | 94.9 | 92.2 | 98 | 89.3 | 102 | 95 | 94.2 | 105 | 116 | 94.2 | 98.5 | 94.3 | 93.6 | 102 | 96.9 | 100 | 97.5 | 104 | 102 | > 10 | > 10 | > 10 | > 10 | > 10 | 0 | 0 | 0 | 0 | 0
